Data: patent US11254663B2 (BRISTOL-MYERS SQUIBB COMPANY, priority 2019, dated 2022)

The compounds below were run against FXR (Homo sapiens (Human), UniProt Q96RI1) (assay: transient human FXR/Gal4-luciferase reporter assay). Settings: not given.
Assay type: cell-based
Procedure, shortened: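 HEK293 cells stably carrying a 5×Gal4 response element–firefly luciferase reporter were transiently transfected overnight with a Gal4 DBD–human FXR LBD fusion plasmid. Compound was added in DMSO and cells were incubated overnight at 37 °C, 5% CO2. Activity was read as Steady-Glo luminescence.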

Chain of FXR (Q96RI1 262-486): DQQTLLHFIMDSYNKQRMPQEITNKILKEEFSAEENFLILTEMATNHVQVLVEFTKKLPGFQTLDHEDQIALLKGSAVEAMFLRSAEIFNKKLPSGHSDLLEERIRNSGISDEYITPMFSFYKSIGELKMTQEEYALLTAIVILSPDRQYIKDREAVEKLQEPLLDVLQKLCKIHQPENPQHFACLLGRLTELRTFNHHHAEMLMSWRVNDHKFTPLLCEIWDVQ

Compound	EC50 [nM]
CC(C)(C)c1noc(C23CCC(CN(C(=O)C45CC(F)(C4)C5)c4cncc(-c5ccc(NS(C)(=O)=O)cc5)c4)(CC2)CC3)n1 [Example 475, N-((4-(3-(tert-butyl)-1,2,4-oxadiazol-5-yl)bicyclo[2.2.2]octan-1-yl)methyl)-3-fluoro-N-(5-(4-(methylsulfonamido)phenyl)pyridin-3-yl)bicyclo[1.1.1]pentane-1-carboxamide]	1600
Cc1nc2ccc(-c3cccc(N(CC45CCC(c6nc(C(F)F)no6)(CC4)CC5)C(=O)C45CC(F)(C4)C5)c3)cc2s1 [Example 471, N-((4-(3-(difluoromethyl)-1,2,4-oxadiazol-5-yl)bicyclo[2.2.2]octan-1-yl)methyl)-3-fluoro-N-(3-(2-methylbenzo[d]thiazol-6-yl)phenyl)bicyclo[1.1.1]pentane-1-carboxamide]	135

Same assay, conditions: Gal4-hFXR fusion construct, HEK293 reporter cells; response relative to 8 μM GW-4064

Compound	EC50 [nM]
Cc1nc2ccc(-c3cccc(N(CC45CCC(c6nc(C7CC7)no6)(CC4)CC5)C(=O)C45CC(F)(C4)C5)c3)cn2n1 [Example 324, N-((4-(3-cyclopropyl-1,2,4-oxadiazol-5-yl)bicyclo[2.2.2]octan-1-yl)methyl)-3-fluoro-N-(3-(2-methyl-[1,2,4]triazolo[1,5-a]pyridin-6-yl)phenyl)bicyclo[1.1.1]pentane-1-carboxamide]	250
O=C(N(CC12CCC(c3nc(C4CC4)no3)(CC1)CC2)c1cncc(-c2cnc(C(F)(F)F)nc2)c1)C12CC(F)(C1)C2 [Example 428, N-((4-(3-cyclopropyl-1,2,4-oxadiazol-5-yl)bicyclo[2.2.2]octan-1-yl)methyl)-3-fluoro-N-(5-(2-(trifluoromethyl)pyrimidin-5-yl)pyridin-3-yl)bicyclo[1.1.1]pentane-1-carboxamide]	3550
CC(F)(F)c1nc(C23CCC(CN(C(=O)C45CC(F)(C4)C5)c4ccc(F)c(C5CC5)c4)(CC2)CC3)no1 [Example 574, N-(3-cyclopropyl-4-fluorophenyl)-N-((4-(5-(1,1-difluoroethyl)-1,2,4-oxadiazol-3-yl)bicyclo[2.2.2]octan-1-yl)methyl)-3-fluorobicyclo[1.1.1]pentane-1-carboxamide]	244
CC(C)(O)c1ccc(-c2cccc(N(CC34CCC(c5noc(C(C)(C)F)n5)(CC3)CC4)C(=O)[C@H]3C[C@](O)(C(F)(F)F)C3)n2)cc1 [Example 595, (cis)-N-((4-(5-(2-fluoropropan-2-yl)-1,2,4-oxadiazol-3-yl)bicyclo[2.2.2]octan-1-yl)methyl)-3-hydroxy-N-(6-(4-(2-hydroxypropan-2-yl)phenyl)pyridin-2-yl)-3-(trifluoromethyl)cyclobutane-1-carboxamide]	64
Cc1cc(-c2cccc(N(CC34CCC(c5nc(C6CC6)no5)(CC3)CC4)C(=O)C34CC(F)(C3)C4)c2)cn2ncnc12 [Example 266, N-((4-(3-cyclopropyl-1,2,4-oxadiazol-5-yl)bicyclo[2.2.2]octan-1-yl)methyl)-3-fluoro-N-(3-(8-methyl-[1,2,4]triazolo[1,5-a]pyridin-6-yl)phenyl)bicyclo[1.1.1]pentane-1-carboxamide]	691
CCOc1ncc(-c2cccc(N(CC34CCC(c5ccc(C(F)(F)F)cn5)(CC3)CC4)C(=O)C34CC(F)(C3)C4)c2)cn1 [Example 487, N-(3-(2-ethoxypyrimidin-5-yl)phenyl)-3-fluoro-N-((4-(5-(trifluoromethyl)pyridin-2-yl)bicyclo[2.2.2]octan-1-yl)methyl)bicyclo[1.1.1]pentane-1-carboxamide]	418
CC(C)(O)c1ccc(-c2cccc(N(CC34CCC(c5noc(C(C)(C)F)n5)(CC3)CC4)C(=O)NC3CCC(O)(C(F)(F)F)CC3)c2)cc1 (single isomer, unassigned) [Example 600, 1-((4-(5-(2-fluoropropan-2-yl)-1,2,4-oxadiazol-3-yl)bicyclo[2.2.2]octan-1-yl)methyl)-3-(4-hydroxy-4-(trifluoromethyl)cyclohexyl)-1-(4′-(2-hydroxypropan-2-yl)-[1,1′-biphenyl]-3-yl) urea]	16
CC(C)S(=O)(=O)Nc1ccc(-c2cccc(N(CC34CCC(c5noc(C(C)(C)C)n5)(CC3)CC4)C(=O)C34CC(F)(C3)C4)c2)cc1 [Example 448, N-((4-(5-(tert-butyl)-1,2,4-oxadiazol-3-yl)bicyclo[2.2.2]octan-1-yl)methyl)-3-fluoro-N-(4′-((1-methylethyl)sulfonamido)-[1,1′-biphenyl]-3-yl)bicyclo[1.1.1]pentane-1-carboxamide]	277
N#CC1(c2ccc(-c3cccc(N(CC45CCC(c6nc(C7CC7)no6)(CC4)CC5)C(=O)C45CC(F)(C4)C5)c3)cc2)CC1 [Example 279, N-(4′-(1-cyanocyclopropyl)-[1,1′-biphenyl]-3-yl)-N-((4-(3-cyclopropyl-1,2,4-oxadiazol-5-yl)bicyclo[2.2.2]octan-1-yl)methyl)-3-fluorobicyclo[1.1.1]pentane-1-carboxamide]	125
O=C(N(CC12CCC(c3noc(C4(F)CC4)n3)(CC1)CC2)c1cccc(-c2cnc(C3CC3)nc2)c1)C12CC(F)(C1)C2 [Example 579, N-(3-(2-cyclopropylpyrimidin-5-yl)phenyl)-3-fluoro-N-((4-(5-(1-fluorocyclopropyl)-1,2,4-oxadiazol-3-yl)bicyclo[2.2.2]octan-1-yl)methyl)bicyclo[1.1.1]pentane-1-carboxamide]	45
COc1cc(-c2cccc(N(CC34CCC(c5nc(C6CC6)no5)(CC3)CC4)C(=O)C34CC(F)(C3)C4)c2)cn2ncnc12 [Example 264, N-((4-(3-cyclopropyl-1,2,4-oxadiazol-5-yl)bicyclo[2.2.2]octan-1-yl)methyl)-3-fluoro-N-(3-(8-methoxy-[1,2,4]triazolo[1,5-a]pyridin-6-yl)phenyl)bicyclo[1.1.1]pentane-1-carboxamide]	1500
Cc1c(-c2cccc(N(CC34CCC(c5nc(C6CC6)no5)(CC3)CC4)C(=O)C34CC(F)(C3)C4)c2)cn2ncnc2c1C [Example 312, N-((4-(3-cyclopropyl-1,2,4-oxadiazol-5-yl)bicyclo[2.2.2]octan-1-yl)methyl)-N-(3-(7,8-dimethyl-[1,2,4]triazolo[1,5-a]pyridin-6-yl)phenyl)-3-fluorobicyclo[1.1.1]pentane-1-carboxamide]	916
O=C(N(CC12CCC(c3nc(C4CC4)no3)(CC1)CC2)c1cccc(-c2ccc(OC(F)(F)F)cc2)c1)C12CC(F)(C1)C2 [Example 251, N-((4-(3-cyclopropyl-1,2,4-oxadiazol-5-yl)bicyclo[2.2.2]octan-1-yl)methyl)-3-fluoro-N-(4′-(trifluoromethoxy)-[1,1′-biphenyl]-3-yl)bicyclo[1.1.1]pentane-1-carboxamide]	277
Cc1ccnc(-c2cccc(N(CC34CCC(c5nc(C6CC6)no5)(CC3)CC4)C(=O)C34CC(F)(C3)C4)c2)n1 [Example 300, N-((4-(3-cyclopropyl-1,2,4-oxadiazol-5-yl)bicyclo[2.2.2]octan-1-yl)methyl)-3-fluoro-N-(3-(4-methylpyrimidin-2-yl)phenyl)bicyclo[1.1.1]pentane-1-carboxamide]	413
CCOc1ccc(-c2cncc(N(CC34CCC(c5nc(C6CC6)no5)(CC3)CC4)C(=O)C34CC(F)(C3)C4)c2)cc1 [Example 424, N-((4-(3-cyclopropyl-1,2,4-oxadiazol-5-yl)bicyclo[2.2.2]octan-1-yl)methyl)-N-(5-(4-ethoxyphenyl)pyridin-3-yl)-3-fluorobicyclo[1.1.1]pentane-1-carboxamide]	483
Cc1nc2ncc(-c3cccc(N(CC45CCC(c6noc(C(C)(C)C)n6)(CC4)CC5)C(=O)C45CC(F)(C4)C5)c3)cc2s1 [Example 449, N-((4-(5-(tert-butyl)-1,2,4-oxadiazol-3-yl)bicyclo[2.2.2]octan-1-yl)methyl)-3-fluoro-N-(3-(2-methylthiazolo[4,5-b]pyridin-6-yl)phenyl)bicyclo[1.1.1]pentane-1-carboxamide]	98
CC(C)Oc1ccc(-c2cccc(N(CC34CCC(c5noc(C(C)(F)F)n5)(CC3)CC4)C(=O)NC3CCOCC3)c2)cc1 [Example 652, 1-((4-(5-(1,1-difluoroethyl)-1,2,4-oxadiazol-3-yl)bicyclo[2.2.2]octan-1-yl)methyl)-1-(4′-isopropoxy-[1,1′-biphenyl]-3-yl)-3-(tetrahydro-2H-pyran-4-yl)urea]	379
COCc1ccc(-c2cccc(N(CC34CCC(c5nc(C(C)C)no5)(CC3)CC4)C(=O)C34CC(F)(C3)C4)c2)cc1 [Example 392, 3-fluoro-N-((4-(3-isopropyl-1,2,4-oxadiazol-5-yl)bicyclo[2.2.2]octan-1-yl)methyl)-N-(4′-(methoxymethyl)-[1,1′-biphenyl]-3-yl)bicyclo[1.1.1]pentane-1-carboxamide]	183
CC(C)(O)CN1CC=C(c2cccc(N(CC34CCC(c5noc(C(C)(C)F)n5)(CC3)CC4)C(=O)C34CC(F)(C3)C4)c2)CC1 [Example 663, 3-fluoro-N-((4-(5-(2-fluoropropan-2-yl)-1,2,4-oxadiazol-3-yl)bicyclo[2.2.2]octan-1-yl)methyl)-N-(3-(1-(2-hydroxy-2-methylpropyl)-1,2,3,6-tetrahydropyridin-4-yl)phenyl) bicyclo[1.1.1]pentane-1-carboxamide]	159
CC(C)Oc1ccc(-c2cc(N(CC34CCC(c5noc(C(C)(C)F)n5)(CC3)CC4)C(=O)N[C@H]3CC[C@](C)(OC(F)F)CC3)ccc2F)cc1 [Example 653, 3-((trans)-4-(difluoromethoxy)-4-methylcyclohexyl)-1-(6-fluoro-4′-isopropoxy-[1,1′-biphenyl]-3-yl)-1-((4-(5-(2-fluoropropan-2-yl)-1,2,4-oxadiazol-3-yl)bicyclo[2.2.2]octan-1-yl)methyl)urea]	145
CS(=O)(=O)Nc1ccc(-c2cccc(N(CC34CCC(c5nnc(C6CC6)o5)(CC3)CC4)C(=O)C34CC(F)(C3)C4)c2)cc1 [Example 344, N-((4-(5-cyclopropyl-1,3,4-oxadiazol-2-yl)bicyclo[2.2.2]octan-1-yl)methyl)-3-fluoro-N-(4′-(methylsulfonamido)-[1,1′-biphenyl]-3-yl)bicyclo[1.1.1]pentane-1-carboxamide]	293
